This is an account of results in US9850283B2, “Macrocyclic inhibitors of the PD-1/PD-L1 and CD80(B7-1)/PD-L1 protein/protein interactions” (BRISTOL-MYERS SQUIBB COMPANY, priority 2013, dated 2017).

Structures are written as SMILES. Read-outs that look alike come from different tables or passages of the source. Positions of bridges follow the written chain, without caps; N, C: chain ends. Non-standard residues stand in square brackets, D forms with d. Residues, ends and D or L forms follow the SMILES beside them. ξ: configuration not given here. Ala(indol-4-yl) = N[C@@H](Cc1cccc2[nH]ccc12)C(=O)O; Phe(4-CH2NH2) = NCc1ccc(C[C@H](N)C(=O)O)cc1; Ala(4-thiazolyl) = N[C@@H](Cc1cscn1)C(=O)O; Phe(4-Cl) = N[C@@H](Cc1ccc(Cl)cc1)C(=O)O; Pro(4R-NH2) = N[C@H]1CN[C@H](C(=O)O)C1; Pro(3S-OH) = O=C(O)[C@H]1NCC[C@@H]1O; Bta = N[C@@H](Cc1csc2ccccc12)C(=O)O; ξPro(4R-OH) = O=C(O)C1C[C@@H](O)CN1; Hyp = O=C(O)[C@@H]1C[C@@H](O)CN1; NMeF = CN[C@@H](Cc1ccccc1)C(=O)O; dNMeNle = CCCC[C@@H](NC)C(=O)O; NMeNle = CCCC[C@H](NC)C(=O)O; NMeA = CN[C@@H](C)C(=O)O; Orn = NCCC[C@H](N)C(=O)O; Dab = NCC[C@H](N)C(=O)O; Dap = NC[C@H](N)C(=O)O; ξPip = O=C(O)C1CCCCN1; Sar = CNCC(=O)O

One test deals with T1, Human PD-L1/PD-1 (Homo sapiens, UniProt Q9NZQ7).
T1 construct: made in house; host or cells: HEK293T
T1 sequence (Q9NZQ7 with tags, fused parts or gaps): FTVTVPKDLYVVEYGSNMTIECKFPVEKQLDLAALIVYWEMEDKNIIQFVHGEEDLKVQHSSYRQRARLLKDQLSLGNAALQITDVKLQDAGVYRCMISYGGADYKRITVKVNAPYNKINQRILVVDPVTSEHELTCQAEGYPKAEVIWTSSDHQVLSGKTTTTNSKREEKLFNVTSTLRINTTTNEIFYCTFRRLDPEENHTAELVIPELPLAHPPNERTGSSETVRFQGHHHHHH
In words: HTRF PD-1-Ig/PD-L1-His binding assay (human PD-L1). Particulars: cluster symbol; read-out: HTRF IC50 cluster. The method in brief:
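Ig- and His-fused extracellular PD-1/PD-L1 binding in BSA/Tween-20 dPBS. HTRF with Eu anti-Ig (1 nM final) and APC anti-His (20 nM final).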
(In general: In TR-FRET formats the signal depends on donor and acceptor labels being close together.)

Test [1] has as its target T2, LK35.2-hPD-L1 cells / PE-labeled PD-1-Ig (Homo sapiens, UniProt Q9NZQ7).
T2 construct: expressed in transfected cells; host or cells: LK35.2 mouse B cell line
Put plainly: LK35.2-hPD-L1 cell binding high-content screening assay. Type of test: cell-based. Particulars: cluster symbol, read-out: CBA IC50 cluster. How it is done:
LK35.2-hPD-L1 Cell Binding High-Content Screening Assay. Phycoerythrin (PE) was covalently linked to the Ig epitope tag of human PD-1-Ig and fluorescently-labeled PD-1-Ig was used for binding studies with a mouse B cell line (LK35.2) stably over-expressing human PD-L1 (LK35.2-hPD-L1). Briefly, 3×10^3 LK35.2-hPD-L1 cells were seeded into 384 well plates in 20 ul of RPMI supplemented with 10% fetal calf serum and cultured overnight. 125 nl of compound was added to cells, followed by 5 ul of PE-labeled PD-1-Ig (1 nM final), diluted in RPMI supplemented with 10% fetal calf serum, followed by incubation at 37° C. for 1 h. […] Cells were washed 3× in 100 ul of dPBS followed by final addition of 15 ul of dPBS. Data was collected and processed using a Cell Insight NXT High Content Imager and associated software.

Where [2] appears, read: cell binding assay, cell line not given.
[3] abbreviates: cell line of CBA not given (LK35.2-hPD-L1 or 293T-hPD-L1).

T2 sequence (Q9NZQ7 19-290): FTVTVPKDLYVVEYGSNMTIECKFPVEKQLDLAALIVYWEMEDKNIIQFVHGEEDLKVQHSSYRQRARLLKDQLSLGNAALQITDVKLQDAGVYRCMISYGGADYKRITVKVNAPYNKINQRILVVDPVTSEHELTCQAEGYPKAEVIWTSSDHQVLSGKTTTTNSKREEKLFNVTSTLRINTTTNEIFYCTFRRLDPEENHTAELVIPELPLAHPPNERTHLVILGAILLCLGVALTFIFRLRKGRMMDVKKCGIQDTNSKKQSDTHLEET

Usually IC50 stands for the concentration at which inhibition is half-maximal. Consider `CCCC[C@H]1C(=O)N(C)[C@@H](CCCC)C(=O)N[C@@H](CCCNC(=N)N)C(=O)N[C@H](C(=O)NCC(N)=O)CSCC(=O)N[C@@H](Cc2ccc(O)cc2)C(=O)N(C)[C@@H](C)C(=O)N[C@@H](CC(N)=O)C(=O)N2CCC[C@H]2C(=O)N[C@@H](Cc2cnc[nH]2)C(=O)N[C@@H](CCC(=O)O)C(=O)N2C[C@H](O)C[C@H]2C(=O)N[C@@H](Cc2csc3ccccc23)C(=O)N[C@@H](CCN)C(=O)N[C@@H](Cc2c[nH]c3ccccc23)C(=O)N1C` [Example 5052] ({CH2CO}-Y[NMeA]NPHE[Hyp][Bta][Dab]W[NMeNle][NMeNle]RCG-NH2; thioether N-14), for which the results for the IC50 (at Human PD-L1/PD-1; in test [1] (setting [2])) were > 30.5 nM and > 74.3 nM, respectively.

Regarding `CCCC[C@H]1C(=O)N(C)CC(=O)N[C@@H](CC(=O)O)C(=O)N[C@@H](C(C)C)C(=O)N(C)[C@@H](Cc2ccccc2)C(=O)N[C@@H](Cc2ccc(O)cc2)C(=O)N(C)CC(=O)N[C@@H](Cc2cccc3[nH]ccc23)C(=O)N[C@@H](Cc2ccc(O)cc2)C(=O)N[C@@H](CC(C)C)C(=O)N[C@H](C(=O)NCC(N)=O)CSCC(=O)N[C@@H](Cc2ccccc2)C(=O)N(C)[C@@H](Cc2ccccc2)C(=O)N1C` [Example 3071] ({CH2CO}-F[NMeF][NMeNle][Sar]DV[NMeF]Y[Sar][Ala(indol-4-yl)]YLCG-NH2; thioether N-13), the IC50 lay in the range of 6.76 to 30.3 nM at Human PD-L1/PD-1 and 4.78 to 72.9 nM in test [1] (setting [3]).

`CCCC[C@H]1C(=O)N(C)CC(=O)N[C@@H](CC(=O)O)C(=O)N[C@@H](C(C)C)C(=O)N(C)[C@@H](Cc2ccccc2)C(=O)N[C@@H](Cc2ccc(O)cc2)C(=O)N(C)CC(=O)N[C@@H](Cc2c[nH]c3ccccc23)C(=O)N[C@@H](Cc2ccc(O)cc2)C(=O)N[C@@H](CC(C)C)C(=O)N[C@H](C(=O)NCC(N)=O)CSCC(=O)N[C@@H](Cc2ccccc2)C(=O)N(C)[C@@H](Cc2cccc3ccccc23)C(=O)N1C` (single isomer, unassigned) [Example 3585-A]: the IC50 is > 30.5 nM at Human PD-L1/PD-1 and > 74.3 nM in test [1] (setting [2]).

For the compound `CCCC[C@H]1C(=O)N(C)[C@@H](CCCC)C(=O)N[C@@H](C)C(=O)N[C@H](C(=O)NCC(N)=O)CSCC(=O)N[C@@H](Cc2ccc(O)cc2)C(=O)N(C)[C@@H](C)C(=O)N[C@@H](CC(=O)O)C(=O)N2CCC[C@H]2C(=O)N[C@@H](CN)C(=O)N[C@@H](CC(C)C)C(=O)N2C[C@H](O)C[C@H]2C(=O)N[C@@H](Cc2c[nH]c3ccccc23)C(=O)N[C@@H](CO)C(=O)N[C@@H](Cc2c[nH]c3ccccc23)C(=O)N1C` [Example 1138] ({CH2CO}-Y[NMeA]DP[Dap]L[Hyp]WSW[NMeNle][NMeNle]ACG-NH2; thioether N-14), the IC50 lay within 6.76 to 30.3 nM on Human PD-L1/PD-1 and 0.158 to 4.71 nM in test [1] (setting [3]).

Take `CCCC[C@H]1C(=O)N2CCC[C@@H]2C(=O)N2C[C@H](N)C[C@H]2C(=O)N[C@@H](C(C)C)C(=O)N(C)[C@@H](Cc2ccccc2)C(=O)N[C@@H](Cc2ccc(O)cc2)C(=O)N(C)CC(=O)N[C@@H](Cc2c[nH]c3ccccc23)C(=O)N[C@@H](Cc2ccc(O)cc2)C(=O)N[C@@H](CC(C)C)C(=O)N[C@H](C(=O)NCC(N)=O)CSCC(=O)N[C@@H](Cc2ccccc2)C(=O)N(C)[C@@H](Cc2ccccc2)C(=O)N1C` [Example 3175] ({CH2CO}-F[NMeF][NMeNle][dP][Pro(4R-NH2)]V[NMeF]Y[Sar]WYLCG-NH2; thioether N-13): the IC50 at Human PD-L1/PD-1 was in the range of 6.76 to 30.3 nM; in test [1] (setting [3]), 4.78 to 72.9 nM.

`CCCC[C@H]1C(=O)N(C)CC(=O)N[C@@H](CC(=O)O)C(=O)N[C@@H](C(C)C)C(=O)N(C)[C@@H](Cc2ccccc2)C(=O)N[C@@H](Cc2ccc(O)cc2)C(=O)N(C)CC(=O)N[C@@H](Cc2c[nH]c3ccccc23)C(=O)N[C@@H](Cc2ccc(Cl)cc2)C(=O)N[C@@H](CC(C)C)C(=O)N[C@H](C(=O)NCC(N)=O)CSCC(=O)N[C@@H](Cc2ccccc2)C(=O)N(C)[C@@H](Cc2ccccc2)C(=O)N1C` [Example 3099] ({CH2CO}-F[NMeF][NMeNle][Sar]DV[NMeF]Y[Sar]W[Phe(4-Cl)]LCG-NH2; thioether N-13): the IC50 at Human PD-L1/PD-1 was > 30.5 nM; in test [1] (setting [3]) it was > 74.3 nM.

For the compound `CCCC[C@H]1C(=O)N(C)[C@@H](CCCC)C(=O)N[C@@H](CCCNC(=N)N)C(=O)N[C@H](C(=O)NCC(N)=O)CSCC(=O)N[C@@H](Cc2ccc(O)cc2)C(=O)N(C)[C@@H](C)C(=O)N[C@@H](CN)C(=O)N2CCC[C@H]2C(=O)N[C@@H](Cc2c[nH]cn2)C(=O)N[C@@H](CC(=O)O)C(=O)N2C[C@H](O)C[C@H]2C(=O)N[C@@H](Cc2c[nH]c3ccccc23)C(=O)N[C@@H](CO)C(=O)N[C@@H](Cc2c[nH]c3ccccc23)C(=O)N1C` [Example 5134] ({CH2CO}-Y[NMeA][Dap]PHD[Hyp]WSW[NMeNle][NMeNle]RCG-NH2; thioether N-14), the IC50 lay within 0.385 to 6.74 nM on Human PD-L1/PD-1 and 4.78 to 72.9 nM in test [1] (setting [2]).

Regarding `CCCC[C@H]1C(=O)N(C)CC(=O)N[C@@H](CC(=O)O)C(=O)N[C@@H](C(C)C)C(=O)N(C)[C@@H](Cc2ccccc2)C(=O)N[C@@H](Cc2ccc(CN)cc2)C(=O)N(C)CC(=O)N[C@@H](Cc2csc3ccccc23)C(=O)N[C@@H](Cc2ccc(O)cc2)C(=O)N[C@@H](CC(C)C)C(=O)N[C@H](C(=O)NCC(N)=O)CSCC(=O)N[C@@H](Cc2ccc(Cl)cc2)C(=O)N(C)[C@@H](Cc2ccccc2)C(=O)N1C` [Example 3119] ({CH2CO}-[Phe(4-Cl)][NMeF][NMeNle][Sar]DV[NMeF][Phe(4-CH2NH2)][Sar][Bta]YLCG-NH2; thioether N-13), the half-maximal inhibitory concentration (IC50) was in the range of 6.76 to 30.3 nM on Human PD-L1/PD-1 and 4.78 to 72.9 nM in test [1] (setting [3]).

Consider `CCCC[C@H]1C(=O)N(C)[C@@H](CCCC)C(=O)N[C@@H](CC(C)C)C(=O)N[C@H](C(=O)NCC(N)=O)CSCC(=O)N[C@@H](Cc2ccc(O)cc2)C(=O)N(C)[C@@H](C)C(=O)N[C@@H](CC(N)=O)C(=O)N2CCC[C@H]2C(=O)N[C@@H](Cc2c[nH]cn2)C(=O)N[C@@H](CCC(N)=O)C(=O)N2CCC[C@H]2C(=O)N[C@@H](Cc2c[nH]c3ccccc23)C(=O)N[C@@H](CO)C(=O)N[C@@H](Cc2c[nH]c3ccccc23)C(=O)N1C` [Example 5079] ({CH2CO}-Y[NMeA]NPHQPWSW[NMeNle][NMeNle]LCG-NH2; thioether N-14), for which the IC50 on Human PD-L1/PD-1 fell in the range of 0.385 to 6.74 nM; in test [1] (setting [2]), 4.78 to 72.9 nM.

Consider `CCCC[C@H]1C(=O)N(C)[C@@H](CCCC)C(=O)N[C@@H](C)C(=O)N[C@H](C(=O)NCC(N)=O)CSCC(=O)N[C@@H](Cc2ccc(O)cc2)C(=O)N(C)[C@@H](C)C(=O)N[C@@H](CC(N)=O)C(=O)N2CCC[C@H]2C(=O)N[C@@H](Cc2cnc[nH]2)C(=O)N[C@@H](CCC(N)=O)C(=O)N2C[C@H](O)C[C@H]2C(=O)N[C@@H](Cc2c[nH]c3ccccc23)C(=O)N[C@@H](CO)C(=O)N[C@@H](Cc2c[nH]c3ccccc23)C(=O)N1C` [Example 5047], for which the IC50 at Human PD-L1/PD-1 lay within 6.76 to 30.3 nM; in test [1] (setting [2]), 4.78 to 72.9 nM.

Turning to `CCCC[C@H]1C(=O)N(C)[C@@H](CCCC)C(=O)N[C@@H](CCCNC(=N)N)C(=O)N[C@H](C(=O)NCC(N)=O)CSCC(=O)N[C@@H](Cc2cscn2)C(=O)N(C)[C@@H](C)C(=O)N[C@@H](CC(N)=O)C(=O)N2CCC[C@H]2C(=O)N[C@@H](Cc2cnc[nH]2)C(=O)N[C@@H](CC(C)C)C(=O)N(C)CC(=O)N[C@@H](Cc2c[nH]c3ccccc23)C(=O)N[C@@H](CO)C(=O)N[C@@H](Cc2c[nH]c3ccccc23)C(=O)N1C` [Example 1096] ({CH2CO}-[Ala(4-thiazolyl)][NMeA]NPHL[Sar]WSW[NMeNle][NMeNle]RCG-NH2; thioether N-14), the IC50 at Human PD-L1/PD-1 is > 30.5 nM; in test [1] (setting [3]), > 74.3 nM.

As to `CCCC[C@@H]1C(=O)N(C)[C@H](CCCC)C(=O)N[C@@H](CCCNC(=N)N)C(=O)N[C@@H](C(=O)NCC(N)=O)CSCC(=O)N[C@@H](Cc2ccc(O)cc2)C(=O)N2CCCCC2C(=O)N[C@H](CC(=O)O)C(=O)N2CCC[C@H]2C(=O)N[C@H](Cc2c[nH]cn2)C(=O)N[C@@H](CCCN)C(=O)N2C[C@H](O)CC2C(=O)N[C@H](Cc2c[nH]c3ccccc23)C(=O)N[C@@H](CO)C(=O)N[C@@H](Cc2c[nH]c3ccccc23)C(=O)N1C` (stereo partly drawn) [Example 1218] ({CH2CO}-Y[ξPip][dD]P[dH][Orn][ξPro(4R-OH)][dW]SW[dNMeNle][dNMeNle]R[dC]G-NH2; thioether N-14), the figures for the IC50 (on Human PD-L1/PD-1; in test [1] (setting [3])) were 6.76 to 30.3 nM and 4.78 to 72.9 nM, respectively.

On to `CCCC[C@H]1C(=O)N(C)[C@@H](CCCC)C(=O)N[C@@H](CCCNC(=N)N)C(=O)N[C@H](C(=O)NCC(N)=O)CSCC(=O)N[C@@H](Cc2ccc(O)cc2)C(=O)N2CC[C@H](O)[C@H]2C(=O)N[C@@H](CC(N)=O)C(=O)N2CCC[C@H]2C(=O)N[C@@H](Cc2cnc[nH]2)C(=O)N[C@@H](CC(C)C)C(=O)N2CCC[C@H]2C(=O)N[C@@H](Cc2c[nH]c3ccccc23)C(=O)N[C@@H](CO)C(=O)N[C@@H](Cc2csc3ccccc23)C(=O)N1C` [Example 1227] ({CH2CO}-Y[Pro(3S-OH)]NPHLPWS[Bta][NMeNle][NMeNle]RCG-NH2; thioether N-14), for which the IC50 on Human PD-L1/PD-1 is > 30.5 nM; in test [1] (setting [3]), > 74.3 nM.
